Source: ChEMBL document CHEMBL1127909, “Tyrosinase inhibitory flavonoids fromheterotheca inuloides and their structural functions” (Bioorg Med Chem Lett, 1994)
Values after ≈ are worked out from the molar mass of the structure shown.

Columns and labels:
[1] = biological target: T1, Tyrosinase (Homo sapiens) (UniProt P14679); assay: Percent inhibition of mushroom tyrosinase at concentration of 18 ug/ml
T1 sequence (whole entry): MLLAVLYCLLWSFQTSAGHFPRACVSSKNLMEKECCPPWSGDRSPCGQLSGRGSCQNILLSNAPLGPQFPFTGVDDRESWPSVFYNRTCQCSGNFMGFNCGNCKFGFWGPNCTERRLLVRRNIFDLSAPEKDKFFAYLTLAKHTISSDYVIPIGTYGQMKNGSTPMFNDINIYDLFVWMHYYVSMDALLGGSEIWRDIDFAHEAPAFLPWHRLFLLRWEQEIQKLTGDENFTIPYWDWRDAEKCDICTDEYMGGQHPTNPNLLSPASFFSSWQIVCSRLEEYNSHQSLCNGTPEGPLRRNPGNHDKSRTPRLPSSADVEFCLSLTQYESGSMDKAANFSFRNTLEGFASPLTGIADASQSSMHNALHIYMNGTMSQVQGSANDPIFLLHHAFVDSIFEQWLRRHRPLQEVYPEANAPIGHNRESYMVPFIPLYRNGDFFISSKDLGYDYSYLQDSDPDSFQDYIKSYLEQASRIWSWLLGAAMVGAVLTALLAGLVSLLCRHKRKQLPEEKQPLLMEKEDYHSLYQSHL

[2] = biological target: T1, Tyrosinase (Homo sapiens); assay: Percent inhibition of mushroom tyrosinase at concentration of 45 ug/ml
[3] = test system: Tyrosinase (Agaricus bisporus); assay: Dose required for inhibitory activity against oxidation of L-DOPA by mushroom tyrosinase

O=c1c(O)c(-c2ccc(O)c(O)c2)oc2cc(O)cc(O)c12
inhibition [1]: 40% | inhibition [2]: 80%

O=C(/C=C/c1ccc(O)cc1)OC[C@@H]1O[C@H](Oc2cc(O)c3c(=O)c(O)c(-c4ccc(O)cc4)oc3c2)[C@@H](O)[C@H](O)[C@H]1O
ID50 [3]: 0.39 µg/mL (≈ 0.656 µM)

COc1cc(-c2oc3cc(O[C@H]4O[C@@H](COC(=O)/C=C/c5ccc(O)cc5)[C@H](O)[C@@H](O)[C@@H]4O)cc(O)c3c(=O)c2O)ccc1O
ID50 [3]: 0.44 µg/mL (≈ 0.705 µM)
